Measurements reported in PMC9855333, “1-(Arylsulfonyl-isoindol-2-yl)piperazines as 5-HT6R Antagonists: Mechanochemical Synthesis, In Vitro Pharmacological Properties and Glioprotective Activity” (Biomolecules, 2022).

Key:
human 5-HT7b receptor = biological target: T1, human 5-HT7b receptor (Homo sapiens, UniProt P34969); experiment: Radioligand binding, [3H]-5-CT displacement, HEK-293 cells; conditions: mean ± SEM, three independent binding experiments; read-out: Ki [nM] 5-HT7R
T1 construct: expressed in transfected cells
Experimental: (§1) All experiments were performed in HEK-293 cells, which stably express the human 5-HT1A, 5-HT6, 5-HT7b, and D2L receptors, or using CHO-K1 cells expressing human serotonin 5-HT2A receptor, following the previously reported procedures. For displacement studies, the following radioligands (PerkinElmer, USA) at given concentrations were used at: 2.5 nM [^3H]-8-OH-DPAT (135.2 Ci/ mmol); 1 nM [^3H]-ketanserin (53.4 Ci/mmol); 2 nM [^3H]-LSD (83.6 Ci/mmol); 0.8 nM [^3H]-5-CT (39.2 Ci/mmol) or 2.5 nM [^3H]-raclopride (76.0 Ci/mmol) for 5-HT1A, 5-HT2A, 5-HT6, 5-HT7b and D2L receptors, respectively. All tested compounds were evaluated in triplicate at 7 concentrations (10^−10–10^−4 M). The inhibition constants (Ki) were calculated from the Cheng–Prusoff equation [25]. A detailed description is reported in the Supporting Information.
(§2) 1. Procedure for radioligand binding assay
(§3) All experiments were carried out according to the previously published procedures. HEK293 cells stably expressing human 5-HT1A, 5-HT6, 5-HT7b and D2L receptors (prepared with the use of Lipofectamine 2000) or CHO-K1 cells with plasmid containing the sequence coding for the human serotonin 5-HT2A receptor (Perkin Elmer) were maintained at 37 °C in a humidified atmosphere containing 5% CO2 and grown in Dulbecco’s Modified Eagle’s Medium containing 10% dialyzed fetal bovine serum and 500 μg/ml G418 sulfate. For membrane preparation, cells were cultured in 150 cm2 flasks, grown to 90% confluence, washed twice with pre-warmed to 37 °C phosphate buffered saline (PBS) and centrifuged (200 × g) in PBS containing 0.1 mM EDTA and 1 mM dithiothreitol. Prior to membrane preparation, pellets were stored at –80 °C. […]
(§4) The process of equilibration was terminated by rapid filtration through Unifilter plates with a 96-well cell harvester and radioactivity retained on the filters was quantified on a Microbeta plate reader (PerkinElmer, USA). […] The inhibition constants (Ki) were calculated from the Cheng-Prusoff equation [4].

human D2L receptor = biological target: T2, human D2L receptor (Homo sapiens, UniProt P14416); experiment: Radioligand binding, [3H]-raclopride displacement, HEK-293 cells; conditions: mean ± SEM, three independent binding experiments; read-out: Ki [nM] D2
T2 construct: expressed in transfected cells
Experimental: as §1, §2, §3, §4

[1] = Cytotoxicity, MTT test, SH-SY5Y; type: cell-based; conditions: human, SH-SY5Y cells (human neuroblastoma)
Experimental: Hepatotoxicity, neurotoxicity, and glial cytotoxicity were investigated using the following cellular models: human hepatocellular carcinoma (HepG2), human neuroblastoma (SHSY-5Y), and mouse astrocytes (C8-D1A), all from ATCC (American Type Culture Collection, Manassas, VA, USA). Cells were cultured in appropriate culture media recommended by ATCC supplemented with 10% fetal bovine serum (FBS; Gibco, Life Technologies, Carlsbad, CA, USA) and 1% antibiotic mixture (Gibco, Life Technologies, Carlsbad, CA, USA). Cells were cultured at standard conditions (5% CO2, 95% humidity, 37 °C). For cytotoxicity experiments, cells were seeded into 96 well plates at an initial density of 2000 cells/well. After overnight incubation, cells were treated with 3e, 3f, and 3g in a concentration range of 0.78–50 µM for 48 h; then, an MTT assay was performed as described previously. Briefly, following cell exposure, 10 µL of MTT reagent was added to each well. After the next 4 h, the medium was aspirated, and formazan produced in cells appeared as dark crystals in the bottom of the wells. Next, 100 µL DMSO was added to each well. Then, the optical density of the solution (OD) at 570 nm was determined on a plate reader (Spectra Max iD3, Molecular Devices, San Jose, CA, USA). The experiments were run three times in triplicates.

T2 sequence (P14416 whole entry): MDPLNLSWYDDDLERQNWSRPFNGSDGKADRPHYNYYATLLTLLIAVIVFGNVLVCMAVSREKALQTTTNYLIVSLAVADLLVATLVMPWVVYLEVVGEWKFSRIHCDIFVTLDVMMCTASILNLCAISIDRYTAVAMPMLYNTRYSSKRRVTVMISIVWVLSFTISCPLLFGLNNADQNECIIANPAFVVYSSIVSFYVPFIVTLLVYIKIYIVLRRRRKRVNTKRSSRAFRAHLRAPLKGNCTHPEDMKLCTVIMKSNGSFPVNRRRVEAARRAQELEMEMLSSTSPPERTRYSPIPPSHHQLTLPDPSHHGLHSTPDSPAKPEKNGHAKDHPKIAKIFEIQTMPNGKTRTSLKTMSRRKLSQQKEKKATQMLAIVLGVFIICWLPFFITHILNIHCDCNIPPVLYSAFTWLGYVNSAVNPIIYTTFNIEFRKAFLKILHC
T1 sequence (P34969 1-432 limits assumed): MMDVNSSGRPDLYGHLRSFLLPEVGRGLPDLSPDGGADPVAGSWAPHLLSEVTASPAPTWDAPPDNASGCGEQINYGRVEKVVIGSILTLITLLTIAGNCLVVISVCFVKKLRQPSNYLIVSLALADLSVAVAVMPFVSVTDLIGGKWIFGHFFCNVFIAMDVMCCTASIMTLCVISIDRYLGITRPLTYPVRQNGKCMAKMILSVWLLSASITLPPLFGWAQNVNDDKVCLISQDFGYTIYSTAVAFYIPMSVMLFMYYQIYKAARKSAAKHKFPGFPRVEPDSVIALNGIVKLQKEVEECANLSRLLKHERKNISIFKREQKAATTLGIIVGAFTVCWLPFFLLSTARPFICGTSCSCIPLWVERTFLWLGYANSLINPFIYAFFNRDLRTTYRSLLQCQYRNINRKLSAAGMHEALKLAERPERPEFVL

Row | Structure (SMILES) | Ki (human 5-HT7b receptor) [nM] | Ki (human D2L receptor) [nM] | IC50 at 48 h [1] [µM]
1 | O=S(=O)(c1cccc(N2CCNCC2)c1)N1Cc2ccccc2C1 [3e, 2-{[3-(Piperazin-1-yl)phenyl]sulfonyl}isoindoline] | 4530 ± 327 | 3420 ± 415 | 42
2 | O=S(=O)(c1cccc(N2CCNCC2)c1)N1Cc2cccc(Cl)c2C1 [3f, 4-Chloro-2-{[3-(piperazin-1-yl)phenyl]sulfonyl}isoindoline] | 10700 ± 1030 | 2030 ± 299 | 38
3 | O=S(=O)(c1cccc(N2CCNCC2)c1)N1Cc2cccc(Br)c2C1 [3g, 4-Bromo-2-{[3-(piperazin-1-yl)phenyl]sulfonyl}isoindoline] | 8800 ± 854 | 2440 ± 324 | 48
